Calls of active or inactive are those of the source.
Tests used:
Estrogen receptor beta = Estrogen receptor beta (Homo sapiens, UniProt Q92731);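 note: recombinant ER-beta bound to coactivator SRC1 peptide in presence of estradiol agonist; inhibitors block coactivator peptide binding and lower the FRET signal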
[1] = cytotoxicity in OVCAR8 ovarian cancer cells, dose response, PAX8 project, cell-based, plate reader, dry powder samples (AID 743197); format: functional; settings: OVCAR-8
Paired box protein Pax-8 = Paired box protein Pax-8 (Homo sapiens, UniProt Q06710); assay: inhibitors of PAX8-driven TPO luciferase reporter, dose response, RMG-I cells, cherry-pick (AID 687027); format: functional, cell-based;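 note: luciferase reporter driven by Pax8 target thyroperoxidase promoter measured by SteadyGlo luminescence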
[2] = target: Eukaryotic translation initiation factor 4E (Mus musculus, UniProt P63073); assay: eIF4E–eIF4G protein interaction inhibitors, dose response, biochemical, TR-FRET (AID 855); format: functional;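 note: potency for disrupting eIF4E binding to eIF4GI seen as loss of FRET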
Cytochrome P450 3A4 [3] = target: T1, Cytochrome P450 3A4 (Homo sapiens, UniProt P08684);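 note: CYP3A4 tested as one member of a cytochrome P450 panel screen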
[4] = target: T2, High affinity choline transporter 1 (Homo sapiens, UniProt Q9GZV3); assay: CHT inhibitors, dose response, cell-based, 5-point CRC, membrane potential dye (AID 504840); format: functional
T2 sequence (Q9GZV3 whole entry): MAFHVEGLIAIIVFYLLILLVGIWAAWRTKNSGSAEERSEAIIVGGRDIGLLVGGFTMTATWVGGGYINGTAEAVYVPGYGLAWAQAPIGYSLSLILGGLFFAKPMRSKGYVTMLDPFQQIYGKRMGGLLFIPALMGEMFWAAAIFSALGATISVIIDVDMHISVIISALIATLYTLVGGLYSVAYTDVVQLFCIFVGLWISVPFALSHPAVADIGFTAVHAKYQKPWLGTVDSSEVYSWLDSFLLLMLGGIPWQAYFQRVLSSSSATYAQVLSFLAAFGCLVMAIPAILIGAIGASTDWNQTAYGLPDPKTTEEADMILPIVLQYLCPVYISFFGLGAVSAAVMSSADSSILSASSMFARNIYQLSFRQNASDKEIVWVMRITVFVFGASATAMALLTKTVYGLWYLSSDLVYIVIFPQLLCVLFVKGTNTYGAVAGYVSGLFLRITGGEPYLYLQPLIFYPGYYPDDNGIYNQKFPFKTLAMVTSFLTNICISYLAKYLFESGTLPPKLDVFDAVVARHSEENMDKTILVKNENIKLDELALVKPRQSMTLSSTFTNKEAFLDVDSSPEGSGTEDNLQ

Vero [5] = assay: cells; format: functional, cell-based; settings: Chlorocebus sabaeus
Vero [6] = assay: cells; format: functional; settings: Chlorocebus sabaeus
[7] = target: T3, Voltage-gated N-type calcium channel alpha-1B subunit/Amyloid beta A4 precursor protein-binding family A member 1 (Homo sapiens, UniProt Q00975+Q02410); format: protein assay
[8] = target: T3, Voltage-gated N-type calcium channel alpha-1B subunit/Amyloid beta A4 precursor protein-binding family A member 1; format: protein assay; remark: listed apart in the source
[9] = target: T4, Carboxy-terminal domain RNA polymerase II polypeptide A small phosphatase 1 (Homo sapiens, UniProt Q9GZU7); assay: inhibitors of CTDSP1, concentration-response testing, biochemical assay, absorbance-based, actives from ultra-high-throughput screening (AID 540297); format: functional
T4 sequence (Q9GZU7 whole entry): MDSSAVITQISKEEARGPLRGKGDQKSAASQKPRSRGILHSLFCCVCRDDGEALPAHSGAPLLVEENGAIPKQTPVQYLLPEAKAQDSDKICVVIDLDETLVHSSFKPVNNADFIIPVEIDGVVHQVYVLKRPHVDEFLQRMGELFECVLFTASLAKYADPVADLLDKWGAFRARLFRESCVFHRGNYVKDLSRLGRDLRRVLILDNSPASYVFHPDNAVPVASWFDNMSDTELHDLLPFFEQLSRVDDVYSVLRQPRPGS

[10] = MC4R antagonists, dose response, counter-screen for LGR2 antagonist project, cell-based, plate reader, cherry pick (AID 743444); format: functional;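 note: transfected HEK 293 cells stimulated with alpha-MSH peptide; potency of inhibitors of the alpha-MSH evoked signal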
[11] = A549 cell cytotoxicity, dose response, cytotoxicity control, plate reader, cherry-pick, antagonist series (AID 743412); format: functional, cell-based
[12] = LGR2 antagonists, dose response, cell-based, HEK293, CRE-luciferase reporter, cherry pick, set 2 (AID 743343); format: functional;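 note: transfected cells were stimulated with diluted bursicon conditioned medium after compound addition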
[13] = ZM109 Env clade C HIV-1 fusion inhibitors, dose response, HeLa effector, CEM target cells, luciferase, cherry-pick (AID 652058); format: functional, cell-based
[14] = inhibitors of HIV Env-driven cell fusion, dose response, cherry-pick (AID 652057); format: functional, cell-based
[15] = inhibitors of clade B AD8 Env fusion, dose response, cell-based, cherry-pick (AID 652062); format: functional;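 note: luciferase signal from cell-cell fusion driven by HIV-1 clade B AD8 Env; potency is for inhibitors of fusion seen as a drop in luminescence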
Cytochrome P450 1A2 = target: T5, Cytochrome P450 1A2 (Homo sapiens, UniProt P05177);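 note: PubChem cytochrome P450 panel assay, CYP1A2 panel member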
T5 sequence (P05177 whole entry): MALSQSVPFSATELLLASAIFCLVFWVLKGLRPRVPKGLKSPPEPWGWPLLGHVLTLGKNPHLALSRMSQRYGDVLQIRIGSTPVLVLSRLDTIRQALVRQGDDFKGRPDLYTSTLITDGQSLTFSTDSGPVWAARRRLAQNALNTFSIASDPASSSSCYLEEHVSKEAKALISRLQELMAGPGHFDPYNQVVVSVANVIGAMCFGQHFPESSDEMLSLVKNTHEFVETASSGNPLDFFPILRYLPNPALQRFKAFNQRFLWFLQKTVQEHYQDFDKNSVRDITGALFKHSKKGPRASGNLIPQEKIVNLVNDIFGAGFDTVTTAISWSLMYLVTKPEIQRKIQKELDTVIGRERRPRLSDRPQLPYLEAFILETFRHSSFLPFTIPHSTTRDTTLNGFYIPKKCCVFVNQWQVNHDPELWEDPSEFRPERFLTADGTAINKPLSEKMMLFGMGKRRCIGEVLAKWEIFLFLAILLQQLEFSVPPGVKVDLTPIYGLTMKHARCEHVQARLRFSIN

[16] = HEp-2 cell cytotoxicity, dose response, cytotoxicity control for RSV inhibitor project, HTS (AID 2410); format: functional; settings: human respiratory syncytial virus
Cytochrome P450 2C9 = Cytochrome P450 2C9 (Homo sapiens, UniProt P11712)
Cytochrome P450 3A4 [17] = target: T1, Cytochrome P450 3A4; remark: listed apart in the source
Cytochrome P450 2C19 = Cytochrome P450 2C19 (Homo sapiens, UniProt P33261); assay: Cytochrome panel assay with activity outcomes. Panel member name: p450-cyp2c19 Compounds with AC50 equal or less than 10 uM are considered active; format: functional; settings: read-out: AC50

T1 sequence (P08684 whole entry): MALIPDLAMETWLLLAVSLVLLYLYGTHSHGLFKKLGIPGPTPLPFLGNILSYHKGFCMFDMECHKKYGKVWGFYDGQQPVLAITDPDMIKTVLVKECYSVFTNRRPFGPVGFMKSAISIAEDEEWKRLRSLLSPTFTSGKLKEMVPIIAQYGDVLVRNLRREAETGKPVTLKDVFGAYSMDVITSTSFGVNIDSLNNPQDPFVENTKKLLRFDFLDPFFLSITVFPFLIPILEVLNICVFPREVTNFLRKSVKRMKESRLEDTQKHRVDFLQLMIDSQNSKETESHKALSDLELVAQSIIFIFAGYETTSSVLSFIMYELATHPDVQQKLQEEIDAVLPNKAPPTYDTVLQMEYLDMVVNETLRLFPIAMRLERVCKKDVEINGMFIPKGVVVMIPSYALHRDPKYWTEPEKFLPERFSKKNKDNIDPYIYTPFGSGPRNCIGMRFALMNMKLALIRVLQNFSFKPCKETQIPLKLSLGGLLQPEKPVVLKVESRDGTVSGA
Sequence of Eukaryotic translation initiation factor 4E (P63073 whole entry): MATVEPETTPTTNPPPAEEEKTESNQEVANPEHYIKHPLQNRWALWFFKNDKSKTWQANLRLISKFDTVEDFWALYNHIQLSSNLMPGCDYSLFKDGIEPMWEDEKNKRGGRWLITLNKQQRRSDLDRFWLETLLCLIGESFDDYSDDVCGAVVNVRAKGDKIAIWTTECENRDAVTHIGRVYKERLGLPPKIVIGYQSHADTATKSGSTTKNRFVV
Sequence of Estrogen receptor beta (Q92731 whole entry): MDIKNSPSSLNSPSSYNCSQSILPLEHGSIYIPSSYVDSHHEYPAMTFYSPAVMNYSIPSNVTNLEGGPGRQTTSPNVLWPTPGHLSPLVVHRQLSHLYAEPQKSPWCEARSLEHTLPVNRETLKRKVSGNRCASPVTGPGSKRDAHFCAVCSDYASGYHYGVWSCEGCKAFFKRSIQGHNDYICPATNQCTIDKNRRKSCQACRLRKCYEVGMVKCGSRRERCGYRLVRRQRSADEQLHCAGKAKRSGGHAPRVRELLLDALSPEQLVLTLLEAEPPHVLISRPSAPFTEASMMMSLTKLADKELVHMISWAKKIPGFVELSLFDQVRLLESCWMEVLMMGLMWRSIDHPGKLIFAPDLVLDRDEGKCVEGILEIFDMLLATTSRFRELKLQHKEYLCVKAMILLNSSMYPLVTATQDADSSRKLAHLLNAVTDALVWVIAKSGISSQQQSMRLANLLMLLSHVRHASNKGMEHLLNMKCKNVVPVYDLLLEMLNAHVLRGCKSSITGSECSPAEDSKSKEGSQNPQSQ
T3 sequence (Q00975 whole entry): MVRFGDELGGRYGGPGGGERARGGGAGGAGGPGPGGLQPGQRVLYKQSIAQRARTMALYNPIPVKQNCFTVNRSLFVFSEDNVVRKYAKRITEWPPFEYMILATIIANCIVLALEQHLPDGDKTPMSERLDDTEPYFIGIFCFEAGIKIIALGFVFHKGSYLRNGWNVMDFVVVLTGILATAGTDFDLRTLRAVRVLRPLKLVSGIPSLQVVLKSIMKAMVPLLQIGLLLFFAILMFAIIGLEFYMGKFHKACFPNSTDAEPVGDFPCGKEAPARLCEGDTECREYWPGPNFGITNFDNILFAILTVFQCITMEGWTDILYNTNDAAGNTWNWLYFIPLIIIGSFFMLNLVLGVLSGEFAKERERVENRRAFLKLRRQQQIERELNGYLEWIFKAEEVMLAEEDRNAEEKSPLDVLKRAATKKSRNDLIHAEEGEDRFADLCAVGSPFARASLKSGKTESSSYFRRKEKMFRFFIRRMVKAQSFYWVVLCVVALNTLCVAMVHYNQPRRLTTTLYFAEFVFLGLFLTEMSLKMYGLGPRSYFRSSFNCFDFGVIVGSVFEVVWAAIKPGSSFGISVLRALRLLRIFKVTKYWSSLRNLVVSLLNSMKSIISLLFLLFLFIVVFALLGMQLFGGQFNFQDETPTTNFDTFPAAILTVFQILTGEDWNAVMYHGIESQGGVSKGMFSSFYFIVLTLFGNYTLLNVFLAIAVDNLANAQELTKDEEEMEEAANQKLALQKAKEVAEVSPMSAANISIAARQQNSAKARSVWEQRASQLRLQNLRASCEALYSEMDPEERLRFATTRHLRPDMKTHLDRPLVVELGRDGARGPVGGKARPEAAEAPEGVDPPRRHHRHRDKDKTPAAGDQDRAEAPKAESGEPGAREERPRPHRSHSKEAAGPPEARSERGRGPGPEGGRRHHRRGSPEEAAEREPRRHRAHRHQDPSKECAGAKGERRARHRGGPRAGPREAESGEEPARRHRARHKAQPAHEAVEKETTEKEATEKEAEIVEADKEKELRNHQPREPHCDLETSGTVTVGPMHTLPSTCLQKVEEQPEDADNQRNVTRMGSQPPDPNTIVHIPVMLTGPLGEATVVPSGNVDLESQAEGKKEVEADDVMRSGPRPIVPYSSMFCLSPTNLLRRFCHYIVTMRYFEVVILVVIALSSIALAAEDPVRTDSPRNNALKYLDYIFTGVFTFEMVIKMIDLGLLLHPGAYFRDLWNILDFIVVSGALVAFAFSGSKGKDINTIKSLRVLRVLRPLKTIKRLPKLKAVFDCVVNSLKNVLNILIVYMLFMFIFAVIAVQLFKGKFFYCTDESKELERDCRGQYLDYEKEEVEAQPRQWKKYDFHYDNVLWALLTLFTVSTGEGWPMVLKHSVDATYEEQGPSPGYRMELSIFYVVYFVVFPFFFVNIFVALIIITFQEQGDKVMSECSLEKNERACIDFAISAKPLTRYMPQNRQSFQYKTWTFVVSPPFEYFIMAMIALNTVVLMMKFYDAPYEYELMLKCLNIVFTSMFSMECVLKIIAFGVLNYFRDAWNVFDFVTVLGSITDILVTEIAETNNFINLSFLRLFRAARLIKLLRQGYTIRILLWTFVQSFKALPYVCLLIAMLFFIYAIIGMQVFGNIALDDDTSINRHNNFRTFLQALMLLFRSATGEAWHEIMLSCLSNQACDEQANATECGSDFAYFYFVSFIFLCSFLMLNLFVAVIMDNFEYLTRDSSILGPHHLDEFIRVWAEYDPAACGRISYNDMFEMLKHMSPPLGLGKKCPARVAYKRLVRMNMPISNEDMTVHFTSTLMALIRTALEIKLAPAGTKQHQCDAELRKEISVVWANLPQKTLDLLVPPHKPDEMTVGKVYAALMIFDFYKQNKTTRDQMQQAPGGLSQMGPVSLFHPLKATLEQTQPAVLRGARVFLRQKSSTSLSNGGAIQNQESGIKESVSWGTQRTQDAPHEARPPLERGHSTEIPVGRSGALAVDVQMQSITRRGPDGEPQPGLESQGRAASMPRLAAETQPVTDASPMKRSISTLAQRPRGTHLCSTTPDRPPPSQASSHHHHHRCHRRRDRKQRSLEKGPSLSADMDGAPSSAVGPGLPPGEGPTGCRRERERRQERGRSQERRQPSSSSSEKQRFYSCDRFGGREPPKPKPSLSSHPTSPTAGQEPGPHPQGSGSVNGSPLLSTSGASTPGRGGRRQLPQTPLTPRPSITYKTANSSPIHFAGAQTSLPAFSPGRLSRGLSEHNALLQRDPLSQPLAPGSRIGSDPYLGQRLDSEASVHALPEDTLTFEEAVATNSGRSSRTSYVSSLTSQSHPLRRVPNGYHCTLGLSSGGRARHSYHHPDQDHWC
T3 sequence (Q02410 whole entry): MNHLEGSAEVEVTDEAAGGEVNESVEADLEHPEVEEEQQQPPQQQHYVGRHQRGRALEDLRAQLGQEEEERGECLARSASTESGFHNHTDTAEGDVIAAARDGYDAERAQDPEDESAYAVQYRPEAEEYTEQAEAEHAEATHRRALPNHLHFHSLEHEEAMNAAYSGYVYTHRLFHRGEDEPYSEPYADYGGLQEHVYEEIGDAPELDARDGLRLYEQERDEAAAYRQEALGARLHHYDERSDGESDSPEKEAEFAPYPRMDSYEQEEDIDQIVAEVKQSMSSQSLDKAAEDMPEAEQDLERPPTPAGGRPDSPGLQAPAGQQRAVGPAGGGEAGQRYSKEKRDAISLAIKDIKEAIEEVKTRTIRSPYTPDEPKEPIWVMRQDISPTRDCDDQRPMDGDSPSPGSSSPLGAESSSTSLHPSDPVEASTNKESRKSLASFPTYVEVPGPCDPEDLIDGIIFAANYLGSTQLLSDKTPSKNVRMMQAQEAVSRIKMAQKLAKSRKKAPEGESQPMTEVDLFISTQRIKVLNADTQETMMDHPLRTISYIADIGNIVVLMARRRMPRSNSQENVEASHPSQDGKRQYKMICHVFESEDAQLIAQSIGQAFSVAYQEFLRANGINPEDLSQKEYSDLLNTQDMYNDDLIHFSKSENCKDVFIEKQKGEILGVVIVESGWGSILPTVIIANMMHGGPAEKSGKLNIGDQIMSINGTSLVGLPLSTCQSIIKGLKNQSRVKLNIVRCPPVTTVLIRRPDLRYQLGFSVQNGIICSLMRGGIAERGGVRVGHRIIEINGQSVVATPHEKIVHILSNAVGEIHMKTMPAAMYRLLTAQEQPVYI
Sequence of Paired box protein Pax-8 (Q06710 whole entry): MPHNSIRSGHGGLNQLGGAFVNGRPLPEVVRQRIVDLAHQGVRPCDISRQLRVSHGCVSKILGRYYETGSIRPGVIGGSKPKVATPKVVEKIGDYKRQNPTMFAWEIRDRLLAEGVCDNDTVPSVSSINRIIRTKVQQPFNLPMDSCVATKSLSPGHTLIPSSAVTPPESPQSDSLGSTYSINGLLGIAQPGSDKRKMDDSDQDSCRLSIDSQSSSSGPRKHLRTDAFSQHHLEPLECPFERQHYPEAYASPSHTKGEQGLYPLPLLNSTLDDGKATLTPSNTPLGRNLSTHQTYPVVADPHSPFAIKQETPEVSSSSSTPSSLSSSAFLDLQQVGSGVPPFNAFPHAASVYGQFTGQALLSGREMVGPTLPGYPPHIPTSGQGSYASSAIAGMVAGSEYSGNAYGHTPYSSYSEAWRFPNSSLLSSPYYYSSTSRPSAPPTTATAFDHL

## COc1ccc(-c2cn3ccsc3n2)cc1
Estrogen receptor beta
  IC50: > 50 µM (not active)

## Cc1ccc(S(=O)(=O)N(C)C[C@@H]2OCCCC[C@@H](C)Oc3ccc(NS(=O)(=O)c4ccc(Cl)cc4)cc3C(=O)N([C@H](C)CO)C[C@H]2C)cc1
[1]
  AC50: > 70 µM (inactive)
Paired box protein Pax-8
  AC50: 4.4 µM (active)

## CC1CCC(C(C)C)C(OC(=O)COC(=O)c2ccc(N)cc2)C1 (stereo unspecified)
[2]
  IC50: > 64 µM (inactive)

## N#Cc1ccc(C2=NC(C(F)(F)F)(C(F)(F)F)c3c(n(Cc4ccco4)c(=O)[nH]c3=O)N2)cc1
Cytochrome P450 3A4 [3]
  AC50: inconclusive

## O=C(CSc1nnc(-c2ccco2)n1Cc1ccco1)NCc1cccs1
[4]
  IC50: 9.55 µM (active)

## CN1CCN(c2ccc3sc(-n4ccc5ccccc54)nc3c2)CC1
Vero [5]
  IC50: 22.7 µM (active)
Vero [6]
  CC50: > 25 µM (active)

## Cc1ccc(-n2nc(C)c(/C=N/n3c(C)nc4ccccc4c3=O)c2O)cc1
Estrogen receptor beta
  IC50: > 50 µM (not active)

## Cc1cc2ccccn2c1C(=O)c1ccc(Cl)cc1
Cytochrome P450 3A4 [3]
  AC50: inconclusive

## Cc1oc(-c2ccc(Cl)cc2)nc1CN1CCC(C(=O)NCc2ccco2)CC1
[2]
  IC50: > 64 µM (inactive)

## Cc1cc(C(=O)O)ccc1-c1ccc(/C=C2\SC(=O)N(CC(=O)Nc3ccc4c(c3)OCO4)C2=O)o1
[7]
  IC50: > 50 µM (inactive)
[8]
  IC50: 17.5 µM (active)

## CC(=O)c1ccccc1NS(=O)(=O)c1cccc2nsnc12
[9]
  IC50: 4.66 µM (active)

## Cc1cccn2c(=O)c3cc(C#N)/c(=N\C(=O)c4ccco4)n(Cc4ccco4)c3nc12
[9]
  IC50: > 80 µM (inactive)

## CC(C)CCn1cnc2c(oc3nc4c(cc32)CCCC4)c1=O
[10]
  AC50: 3.8 µM (active)
[11]
  AC50: > 52 µM (inactive)
[12]
  AC50: 4.92 µM (active)

## O=C(C[n+]1cccc(Br)c1)c1cccs1
[4]
  IC50: 13.2 µM (active)

## CO[C@@H]1CN(C)C(=O)c2cc(NS(=O)(=O)c3cn(C)cn3)ccc2OC[C@@H](C)N(Cc2ccc(C(F)(F)F)cc2)C[C@H]1C
[13]
  AC50: 1.91 µM (active)
[14]
  AC50: 2.32 µM (active)
[15]
  AC50: 4.85 µM (active)

## C=CCSc1nc2ccccc2n1Cc1nnc(-c2cccs2)o1
[4]
  IC50: 0.457 µM (active)

## CC(C)n1cnc2c(C(=O)N[C@H]3CN4CCC3CC4)cc(Cl)cc21
Cytochrome P450 3A4 [3]
  AC50: inconclusive
Cytochrome P450 1A2
  AC50: 39.8 µM (inconclusive)

## COc1cc2c(cc1NC(=O)c1ccc(C(C)(C)C)cc1)CCCC2
[16]
  CC50: 18.2 µM (active)
Vero [5]
  IC50: 8.78 µM (active)

## O=C(CCNS(=O)(=O)c1cccs1)N1CCCCCC1
[2]
  IC50: > 64 µM (inactive)
Cytochrome P450 2C9
  AC50: 28.2 µM (inconclusive)
Cytochrome P450 3A4 [17]
  AC50: 20 µM (inconclusive)

## CC1CCCC(C)N1C(=O)Nc1cccc(Cl)c1 (stereo unspecified)
Estrogen receptor beta
  IC50: > 50 µM (not active)

## C[C@](O)(c1ccccc1)c1nccc2ccccc12
Cytochrome P450 3A4 [3]
  AC50: inconclusive
Cytochrome P450 2C19
  AC50: 3.98 µM (inconclusive)

## CC(Oc1ccccc1F)C(=O)Nc1ccc2ccccc2c1 (stereo unspecified)
Vero [5]
  IC50: > 6.25 µM (active)

## O=C(O)c1cccnc1C(=O)O [QUINOLINIC ACID]
Cytochrome P450 3A4 [3]
  AC50: inconclusive

## COc1ccccc1NC(=O)c1ccc(S(=O)(=O)N(C)C)cc1
[2]
  IC50: > 64 µM (inactive)
